In patent US12084461B2, “Bicyclic heteroaryl derivatives” (Hoffmann-La Roche Inc., priority 2018, dated 2024):

system: γ-secretase; test: Cellular γ-secretase assay (inhibition of Aβ42 secretion, AlphaLisa); format: cell-based; conditions: human neuroglioma H4 cells overexpressing human APP695 Swedish double mutation, 24 h compound incubation
Experimental: Human neuroglioma H4 cells overexpressing human APP695 with the Swedish double mutation (K595N/M596L) were plated at 30,000 cells/well/100 μL in 96-well plates in IMDM containing 10% FCS, 0.2 mg/L Hygromycin B and incubated at 37° C., 5% CO2. 3-4 h post plating, compounds are a diluted in media and 50 μL is added as […] concentrate to achieve the final concentration. Compound incubation is performed for 24 h. Final doses typically range from 4 μM down to 0.0013 μM in half-log steps resulting in an eight-point dose response curve.
Appropriate controls using vehicle only and reference compound were applied to this assay. The final concentration of Me2SO was 0.4%.
After incubation at 37° C., 5% CO2, the supernatant was subjected to quantification of secreted Aβ42 by the means of an AlphaLisa assay kit (Human Amyloid beta 1-42 Kit: Cat # AL203C, Perkin Elmer). 20 μL of the cell culture supernatant was transferred to an assay plate. Then 10 μL, of a mixture of the AlphaLisa coupled capture antibody and the biotinylated detection antibody was added and incubated for 3 h at RT while softly shaking the assay plate. After a further addition of 20 μL of the Donor beads the assay plate was incubated for 30 min at RT and constant shaking without exposure to direct light. The assay plate was then read on a Paradigm AlphaLisa Reader using the build-in program with excitation at 680 nm and emission at 570 nm. The measured signals were then used to calculate IC50 values for inhibition of Aβ42 secretion by nonlinear regression fit analysis using XLfit 5.3 software (from IDBS company).

| SMILES | IC50 [nM] |
| --- | --- |
| COc1cc(N2C[C@H]3CC[C@@H](C2)[C@@H]3Nc2nc3n(n2)CCCOC3c2cccc(F)c2F)cnn1 (single isomer, unassigned) [Example 2] | 51.1 |
| Cc1cc(N2C[C@H]3CC[C@@H](C2)[C@@H]3Nc2nc3n(n2)CCCO[C@@H]3c2cc(F)cc(Cl)c2)cnn1 [Example 15, (9R)-9-(3-chloro-5-fluoro-phenyl)-N-[(1R,5S)-3-(6-methylpyridazin-4-yl)-3-azabicyclo[3.2.1]octan-8-yl]-5,6,7,9-tetrahydro-[1,2,4]triazolo[5,1-c][1,4]oxazepin-2-amine] | 23.9 |
| COc1cc(N2C[C@H]3CC[C@@H](C2)[C@@H]3Nc2nc3n(n2)CCCO[C@@H]3c2ccc(F)cc2F)cnn1 [Example 3, (9R)-9-(2,4-difluorophenyl)-N-[(1R,5S)-3-(6-methoxypyridazin-4-yl)-3-azabicyclo[3.2.1]octan-8-yl]-5,6,7,9-tetrahydro-[1,2,4]triazolo[5,1-c][1,4]oxazepin-2-amine] | 87.4 |
| COc1cc(N2C[C@H]3CC[C@@H](C2)[C@@H]3Nc2nc3n(n2)CCCOC3c2ccc(F)cc2F)cnn1 (single isomer, unassigned) [Example 4] | 76.2 |
| Cc1cc(N2C[C@H]3CC[C@@H](C2)[C@@H]3Nc2nc3n(n2)CCCO[C@@H]3c2cccc(F)c2F)ncn1 (single isomer, unassigned) [Example 5] | 47.7 |
| COc1cc(N2C[C@H]3CC[C@@H](C2)[C@@H]3Nc2nc3n(n2)CCCOC3c2cc(F)cc(F)c2)cnn1 (single isomer, unassigned) [Example 12] | 72.3 |
| Cc1cc(N2C[C@H]3CC[C@@H](C2)[C@@H]3Nc2nc3n(n2)CCCOC3c2cc(F)cc(Cl)c2)cnn1 (single isomer, unassigned) [Example 16] | 62.6 |
| Cc1cc(N2C[C@H]3CC[C@@H](C2)[C@@H]3Nc2nc3n(n2)CCCOC3c2cccc(F)c2F)ncn1 (single isomer, unassigned) [Example 6] | 62.3 |
| Cc1cc(N2C[C@H]3CC[C@@H](C2)[C@@H]3Nc2nc3n(n2)CCCO[C@@H]3c2cc(F)cc(F)c2)ncn1 (single isomer, unassigned) [Example 7] | 43.3 |
| COc1cc(N2C[C@H]3CC[C@@H](C2)[C@@H]3Nc2nc3n(n2)CCCO[C@@H]3c2cc(F)cc(Cl)c2)cnn1 (single isomer, unassigned) [Example 19] | 13.2 |
| Cc1cc(N2C[C@H]3CC[C@@H](C2)[C@@H]3Nc2nc3n(n2)CCCO[C@@H]3c2ccc(F)c(F)c2F)cnn1 (single isomer, unassigned) [Example 17] | 82.3 |
| COc1cc(N2C[C@H]3CC[C@@H](C2)[C@@H]3Nc2nc3n(n2)CCCO[C@@H]3c2cccc(F)c2F)cnn1 (single isomer, unassigned) [Example 1] | 84.7 |
| Cc1cc(N2C[C@H]3CC[C@@H](C2)[C@@H]3Nc2nc3n(n2)CCCO[C@@H]3c2ccc(F)cc2F)ncn1 (single isomer, unassigned) [Example 8] | 74.9 |
| COc1cc(N2C[C@H]3CC[C@@H](C2)[C@@H]3Nc2nc3n(n2)CCCO[C@@H]3c2cc(F)cc(F)c2)cnn1 [Example 11, (9R)-9-(3,5-difluorophenyl)-N-[(1R,5S)-3-(6-methoxypyridazin-4-yl)-3-azabicyclo[3.2.1]octan-8-yl]-5,6,7,9-tetrahydro-[1,2,4]triazolo[5,1-c][1,4]oxazepin-2-amine] | 22.1 |
| COc1cc(N2C[C@H]3CC[C@@H](C2)[C@@H]3Nc2nc3n(n2)CCCOC3c2ccc(F)c(F)c2F)cnn1 (single isomer, unassigned) [Example 14] | 45.1 |
| Cc1cc(N2C[C@H]3CC[C@@H](C2)[C@@H]3Nc2nc3n(n2)CCCOC3c2ccc(F)cc2F)ncn1 (single isomer, unassigned) [Example 10] | 71.8 |
| Cc1cc(N2C[C@H]3CC[C@@H](C2)[C@@H]3Nc2nc3n(n2)CCCOC3c2cc(F)cc(F)c2)ncn1 (single isomer, unassigned) [Example 9] | 21.7 |
| COc1cc(N2C[C@H]3CC[C@@H](C2)[C@@H]3Nc2nc3n(n2)CCCO[C@@H]3c2ccc(F)c(F)c2F)cnn1 (single isomer, unassigned) [Example 13] | 21.8 |

Results, then the molecule that gave them:

| IC50 [nM] | SMILES |
| --- | --- |
| 20.8 | Cc1cc(N2C[C@H]3CC[C@@H](C2)[C@@H]3Nc2nc3n(n2)CCO[C@@H]3c2cc(F)cc(Cl)c2)ncn1 [Example 25, (8R)-8-(3-chloro-5-fluoro-phenyl)-N-[(1R,5S)-3-(6-methylpyrimidin-4-yl)-3-azabicyclo[3.2.1]octan-8-yl]-6,8-dihydro-5H-[1,2,4]triazolo[5,1-c][1,4]oxazin-2-amine] |
| 16.6 | COc1cc(N2C[C@H]3CC[C@@H](C2)[C@@H]3Nc2nc3n(n2)CCO[C@@H]3c2cc(F)cc(Cl)c2)cnn1 [Example 21, (8R)-8-(3-chloro-5-fluoro-phenyl)-N-[(1R,5S)-3-(6-methoxypyridazin-4-yl)-3-azabicyclo[3.2.1]octan-8-yl]-6,8-dihydro-5H-[1,2,4]triazolo[5,1-c][1,4]oxazin-2-amine] |
| 6.58 | COc1cc(N2C[C@H]3CC[C@@H](C2)[C@@H]3Nc2nc3n(n2)CCCO[C@@H]3c2cc(F)cc(Cl)c2)ccn1 (single isomer, unassigned) [Example 35] |
| 34.5 | COc1cc(N2C[C@H]3CC[C@@H](C2)[C@@H]3Nc2nc3n(n2)CCCOC3c2cc(F)cc(Cl)c2)cnn1 (single isomer, unassigned) [Example 20] |
| 15.7 | COc1cc(N2C[C@H]3CC[C@@H](C2)[C@@H]3Nc2nc3n(n2)CCCO[C@@H]3c2ccc(F)c(F)c2F)ccn1 [Example 37, (9R)—N-[(1R,5S)-3-(2-methoxy-4-pyridyl)-3-azabicyclo[3.2.1]octan-8-yl]-9-(2,3,4-trifluorophenyl)-5,6,7,9-tetrahydro-[1,2,4]triazolo[5,1-c][1,4]oxazepin-2-amine] |
| 95.9 | COc1cc(N2C[C@H]3CC[C@@H](C2)[C@@H]3Nc2nc3n(n2)CCOC3c2ccc(F)c(F)c2F)cnn1 (single isomer, unassigned) [Example 28] |
| 59.7 | Cc1cc(N2C[C@H]3CC[C@@H](C2)[C@@H]3Nc2nc3n(n2)CCO[C@@H]3c2ccc(F)c(F)c2F)ncn1 [Example 23, (8R)—N-[(1R,5S)-3-(6-methylpyrimidin-4-yl)-3-azabicyclo[3.2.1]octan-8-yl]-8-(2,3,4-trifluorophenyl)-6,8-dihydro-5H-[1,2,4]triazolo[5,1-c][1,4]oxazin-2-amine] |
| 10.9 | Cc1cc(N2C[C@H]3CC[C@@H](C2)[C@@H]3Nc2nc3n(n2)CCCO[C@@H]3c2cc(F)cc(Cl)c2)ncn1 (single isomer, unassigned) [Example 33] |
| 78.9 | Cc1cc(N2C[C@H]3CC[C@@H](C2)[C@@H]3Nc2nc3n(n2)CCOC3c2ccc(F)c(F)c2F)ncn1 (single isomer, unassigned) [Example 24] |
| 77.4 | COc1cc(N2C[C@H]3CC[C@@H](C2)[C@@H]3Nc2nc3n(n2)CCO[C@@H]3c2ccc(F)c(F)c2F)cnn1 [Example 27, (8R)—N-[(1R,5S)-3-(6-methoxypyridazin-4-yl)-3-azabicyclo[3.2.1]octan-8-yl]-8-(2,3,4-trifluorophenyl)-6,8-dihydro-5H-[1,2,41]triazolo[5,1-c][1,4]oxazin-2-amine] |
| 52 | COc1cc(N2C[C@H]3CC[C@@H](C2)[C@@H]3Nc2nc3n(n2)CCO[C@@H]3c2ccc(F)c(F)c2F)ccn1 (single isomer, unassigned) [Example 31] |
| 12.7 | COc1cc(N2C[C@H]3CC[C@@H](C2)[C@@H]3Nc2nc3n(n2)CCCOC3c2ccc(F)c(F)c2F)ccn1 (single isomer, unassigned) [Example 38] |
| 43.9 | Cc1cc(N2C[C@H]3CC[C@@H](C2)[C@@H]3Nc2nc3n(n2)CCCO[C@@H]3c2ccc(F)c(F)c2F)ncn1 (single isomer, unassigned) [Example 39] |
| 19.2 | Cc1cc(N2C[C@H]3CC[C@@H](C2)[C@@H]3Nc2nc3n(n2)CCCOC3c2ccc(F)c(F)c2F)ncn1 (single isomer, unassigned) [Example 40] |
| 11.2 | COc1cc(N2C[C@H]3CC[C@@H](C2)[C@@H]3Nc2nc3n(n2)CCO[C@@H]3c2cc(F)cc(Cl)c2)ccn1 [Example 29, (8R)-8-(3-chloro-5-fluoro-phenyl)-N-[(1R,5S)-3-(2-methoxy-4-pyridyl)-3-azabicyclo[3.2.1]octan-8-yl]-6,8-dihydro-5H-[1,2,4]triazolo[5,1-c][1,4]oxazin-2-amine] |
| 12.9 | COc1cc(N2C[C@H]3CC[C@@H](C2)[C@@H]3Nc2nc3n(n2)CCCOC3c2cc(F)cc(Cl)c2)ccn1 (single isomer, unassigned) [Example 36] |
| 71.8 | COc1cc(N2C[C@H]3CC[C@@H](C2)[C@@H]3Nc2nc3n(n2)CCOC3c2cc(F)cc(Cl)c2)cnn1 (single isomer, unassigned) [Example 22] |
| 19.6 | Cc1cc(N2C[C@H]3CC[C@@H](C2)[C@@H]3Nc2nc3n(n2)CCCOC3c2cc(F)cc(Cl)c2)ncn1 (single isomer, unassigned) [Example 34] |
